Test results from patent US20230173089A1, “Q-ER PEPTIDE” (Biotempt B.V., priority 2019, published 2023).
Like-named read-outs stand apart in the source and are kept apart here.

What was measured:
mTOR = conditions: cited from earlier work
[1] = test system: colonic inflammation induced by dextran sulfate sodium (DSS); conditions: Gln supplementation; cited from earlier work
[2] = test system: healthy volunteers given E. coli endotoxin; conditions: cited from earlier work
[3] = test system: male C57B1/6N mice with renal ischemia/reperfusion injury; conditions: cited from earlier work
[4] = test system: high-dose lipopolysaccharide induced inflammation; conditions: previous study; cited from earlier work
[5] = test system: allogenic kidney transplantation recipients; conditions: 50 mg/kg twice daily i.p.; cited from earlier work
[6] = test system: Wistar rats with hemorrhagic shock; assay: hemorrhagic shock and resuscitation in rats (Example 15, SIRS); assay type: in vivo, rat; conditions: single injection 30 minutes after induction of hemorrhagic shock
Description: Severe hemorrhagic shock followed by resuscitation induces a massive inflammatory response, which may culminate into systemic inflammatory response syndrome, multiple organ dysfunction syndrome and finally death. Treatments that effectively prevent this inflammation are limited so far. […] Considering this powerful anti-inflammatory effect, it was investigated whether administration of 0.5 ml i.p. of synthetic heptapeptide SEQ ID NO:5 (AQGVAPG), SEQ ID NO:6 (LQGVAPG), SEQ ID NO:7 (AQGVLPG), SEQ ID NO:8 (LQGVLPG), dissolved in 0.9% NaCl at a concentration of 25 mg/ml, or vehicle (0.9% NaCl), respectively, during the SIRS-phase of hemorrhagic shock, is able to attenuate the inflammatory response associated with this condition.
Hemorrhagic shock is induced in groups of 6 rats for 60 minutes by blood withdrawal until a mean arterial pressure of 40 mmHg is reached. Thirty minutes after induction of hemorrhagic shock, rats received a single injection with one of synthetic heptapeptide SEQ ID NO:5 (AQGVAPG), SEQ ID NO:6 (LQGVAPG), SEQ ID NO:7 (AQGVLPG), SEQ ID NO:8 (LQGVLPG), or 0.9% NaCl solution, as control. Treatment with synthetic heptapeptide SEQ ID NO:5 (AQGVAPG), SEQ ID NO:6 (LQGVAPG), SEQ ID NO:7 (AQGVLPG), SEQ ID NO:8 (LQGVLPG) prevents systemic release of TNF-α and IL-6 and is associated with reduced TNF-α, IL-6 and E-selectin mRNA transcript levels in the liver, with reduced neutrophil infiltration into the liver and is associated with reduced liver damage.
Animals. Adult male specific pathogen-free Wistar rats weighing 350-400 g are used. Rats are housed under barrier conditions at 25° C. with a twelve-hour light/dark cycle, and are allowed food and water ad libitum. The experimental protocol adheres to the rules laid down in national law that serves the implementation of “Guidelines on the protection of experimental animals” by the Council of Europe (1986), Directive 86/609/EC. hCG-related synthetic oligopeptides. Rats are food deprived overnight before the start of the experiment, but are allowed water ad libitum. Rats are anesthetized using a mixture of N2 O/O2 /isoflurane (Pharmachemie B.V., Haarlem, The Netherlands). Body temperature is continuously maintained at 37.5° C. by placing the rats on a thermo controlled “half-pipe” (UNO, Rotterdam, The Netherlands). Endotracheal intubation is performed, and rats are ventilated at 60 breaths per minute with a mixture of N2 O/O2 /isoflurane. Polyethylene tubes (PE-50, Becton Dickinson; St. Michielsgestel, The Netherlands) are flushed with heparin and placed via the right carotid artery in the aorta and in the right internal jugular vein. A 5 cm midline laparotomy is performed and a supra pubic catheter is inserted to monitor urine production. Hemorrhagic shock is induced by blood withdrawal, reducing the circulating blood volume until a mean arterial pressure (MAP) of 40 mmHg is reached. This level of hypotension is maintained for 60 minutes. Thirty minutes after the induction of hemorrhagic shock, rats received a single intravenous (IV) bolus injection of heptapeptide solution or vehicle. Sixty minutes after induction of hemorrhagic shock, rats are resuscitated by four times their shed blood volume over a period of 30 minutes to normalize the MAP, and monitored for another 120 minutes after which they are sacrificed. The rats receive no heparin before or during the experiment. Sham animals are subjected to the same surgical procedure as the hemorrhagic shock animals, but without blood withdrawal and administration of heptapeptide.

[7] = test system: non-obese diabetic (NOD) mouse; assay: type 1 diabetes development in NOD mice; assay type: in vivo; conditions: 250 µg i.p. three times per week, female NOD mice from 14 weeks, max five weeks
Description: The non-obese diabetic (NOD) mouse spontaneously develops type 1 diabetes (T1D) and has served as a model for understanding the genetic and immunological basis, and treatment, of T1D. NOD mice are used in these studies. Most diabetic NOD mice suffer from insulin deficiency diabetes, with the underlying cause of the pancreatic beta-cell loss or destruction most likely a result of an inflammatory process in the micro-vasculature surrounding endocrine beta-cell tissues and genetically accelerated autoimmunity is suspected. Diabetes is assessed by measurement of the venous blood glucose level using an Abbott Medisense Precision glucometer. Mice are considered diabetic after two consecutive glucose measurements ≥11 mmol/l (200 mg/dl). Onset of diabetes is dated from the first consecutive reading of ≥11 mmol/l. In vivo treatment: groups of 14 weeks-old female NOD mice (n=12 per group) are treated with synthetic peptide SEQ ID NO:5 (AQGVAPG), SEQ ID NO:6 (LQGVAPG), SEQ ID NO:7 (AQGVLPG), SEQ ID NO:8 (LQGVLPG) or vehicle (PBS), respectively. Treatment is done by injecting 250 µg peptide diluted in PBS three times per week intraperitoneally (i.p.). Control mice are treated with PBS only. The treatment is discontinued when all PBS treated NOD mice in the experiment have developed diabetes. This is generally at the age of 19 weeks. The peptide and PBS treatments are done for a maximum of five weeks. In instances of hyperglycaemia of ≥20 mmol/l the mice are killed to avoid prolonged discomfort. The remainder mice are kept alive up to the age of 35 weeks without any further treatment.

[8] = test system: murine polymicrobial sepsis model; conditions: cited from earlier work
[9] = test system: Streptozotocin-induced diabetic rats; assay: renal function and urinary protein leakage in streptozotocin-induced diabetic rats; assay type: in vivo, rat; conditions: 140 minutes i.v. infusion, 5 nmol x min(-1) x kg(-1) body wt
Description: Acute effects of 140 minutes i.v. infusion of heptapeptide with SEQ ID NO:8 (LQGVLPG; 5 nmol x min(-1) x kg(-1) body wt) on renal function and urinary protein leakage are studied in anesthetized diabetic male rats two weeks after streptozotocin injection without insulin treatment. Streptozotocin-induced diabetic rats are studied with (N = 12) and without heptapeptide (N = 11) treatment. The two groups show a similarly elevated blood glucose concentration during the study. Age-matched normal rats serve as controls (N = 5). Glomerular filtration rate (GFR) is measured by inulin clearance in the basal state and during a 60-minute glycine infusion (0.22 mmol x min(-1) x kg(-1) body wt)-resembling a protein load challenge-to test the renal functional reserve in all three groups.
In the basal state, the non-heptapeptide-treated diabetic rats display increased GFR and increased total protein leakage when compared with normal rats. Whereas normal rats respond to glycine infusion with an increase in GFR, no increase occurs in diabetic rats not treated with heptapeptide. In diabetic rats given heptapeptide, this reduces the initial glomerular hyperfiltration prior to glycine infusion. […] Thus, short-term infusion of heptapeptide has beneficial effects on protein leakage and hyperfiltration and improves the renal functional reserve in rats.

Compound: NC(=O)CC[C@H](N)C(=O)O [L-Glutamine]
- activity as activators of mTOR or inhibitors of autophagy compared with other amino acids (mTOR; alone or in combination): more potent
- mTOR associated autophagic inhibitory effects on human cells (mTOR; human cells): most prominent
- degree of microscopic injury induced by dextran sulfate sodium (DSS) [1]: attenuated

Compound: AQGV (Immunomodulatory peptide) [SEQ ID NO:2, synthetic linear glutamine-containing tetrapeptide derived from beta-human chorionic gonadotropin]
- endotoxin induced increase in plasma levels of IL-6, IL-8, IL-1RA, MCP-1, MIP-1α, MIP-1β and VCAM-1 ([2]; 180 mg/kg (highest dose)): significant attenuation
- fever and flu-like symptoms ([2]; highest dose (180 mg/kg)): reduced
- endotoxin induced increase in plasma levels of IL-6, IL-8, IL-1RA, MCP-1, MIP-1α, MIP-1β and VCAM-1 ([2]; lower doses (30, 90 mg/kg)): not with the lower doses tested
- survival after IRI ([3]; 20-50 mg/kg twice daily i.p. for four days, started 24 hours after IRI): markedly improved
- CTGF up-regulation (marker of post-ischemic fibrosis) in renal tissue ([3]; four weeks after IRI): significantly less
- tubular epithelial cell proliferation ([3]; mouse, in vivo): significantly enhanced
- acute tubular injury ([3]; two days after IRI): diminished
- inflammatory response and mortality following high-dose lipopolysaccharide [4]: inhibit
- renal function and allograft survival [5]: improved

Compound: AQGVLPG (Immunomodulatory peptide) [SEQ ID NO:7]
- TNF-α, IL-6 and E-selectin mRNA transcript levels in the liver [6]: reduced
- liver damage [6]: reduced
- neutrophil infiltration into the liver [6]: reduced
- systemic release of TNF-α and IL-6 [6]: prevents
- beta-cell failure with diabetes development (occurrence of diabetes after the age of 17 weeks) [7]: significantly reduces

Compound: LQGV (Immunomodulatory peptide) [SEQ ID NO:1, synthetic linear glutamine-containing tetrapeptide derived from beta-human chorionic gonadotropin]
- survival during the first 5 days after moderate cecal ligation and puncture ([8]; 5 mg/kg bodyweight, control 20%): 50%
- survival in severe cecal ligation and puncture model ([8]; 5 mg/kg combined with fluid resuscitation and antibiotics, fluid resuscitation and antibiotics alone 30%): 70%
- cytokine and E-selectin levels in peritoneal lavage fluid, lungs and plasma ([8]; moderate cecal ligation and puncture, 5 mg/kg): reduced
- pulmonary nuclear factor-κB activation and pulmonary damage ([8]; mouse, in vivo): reduced
- inflammatory response and mortality following high-dose lipopolysaccharide [4]: inhibit

Compound: LQGVAPG (Immunomodulatory peptide) [SEQ ID NO:6]
- TNF-α, IL-6 and E-selectin mRNA transcript levels in the liver [6]: reduced
- liver damage [6]: reduced
- neutrophil infiltration into the liver [6]: reduced
- systemic release of TNF-α and IL-6 [6]: prevents
- beta-cell failure with diabetes development (occurrence of diabetes after the age of 17 weeks) [7]: significantly reduces

Compound: LQGVLPG (Immunomodulatory peptide) [SEQ ID NO:8]
- TNF-α, IL-6 and E-selectin mRNA transcript levels in the liver [6]: reduced
- liver damage [6]: reduced
- neutrophil infiltration into the liver [6]: reduced
- systemic release of TNF-α and IL-6 [6]: prevents
- beta-cell failure with diabetes development (occurrence of diabetes after the age of 17 weeks) [7]: significantly reduces
- initial glomerular hyperfiltration (GFR) prior to glycine infusion [9]: reduces
- renal functional reserve (GFR response to glycine infusion) [9]: restores normal
- total protein leakage compared with rats not given heptapeptide [9]: lower
